Series [1] can be described thus: Inhibition against Alpha-maninosidase in jack bean. Also noted: species or system Canavalia ensiformis.
In another series the target is T1, Beta-galactosidase (Bos taurus, UniProt Q58D55).
T1 sequence (Q58D55 whole entry): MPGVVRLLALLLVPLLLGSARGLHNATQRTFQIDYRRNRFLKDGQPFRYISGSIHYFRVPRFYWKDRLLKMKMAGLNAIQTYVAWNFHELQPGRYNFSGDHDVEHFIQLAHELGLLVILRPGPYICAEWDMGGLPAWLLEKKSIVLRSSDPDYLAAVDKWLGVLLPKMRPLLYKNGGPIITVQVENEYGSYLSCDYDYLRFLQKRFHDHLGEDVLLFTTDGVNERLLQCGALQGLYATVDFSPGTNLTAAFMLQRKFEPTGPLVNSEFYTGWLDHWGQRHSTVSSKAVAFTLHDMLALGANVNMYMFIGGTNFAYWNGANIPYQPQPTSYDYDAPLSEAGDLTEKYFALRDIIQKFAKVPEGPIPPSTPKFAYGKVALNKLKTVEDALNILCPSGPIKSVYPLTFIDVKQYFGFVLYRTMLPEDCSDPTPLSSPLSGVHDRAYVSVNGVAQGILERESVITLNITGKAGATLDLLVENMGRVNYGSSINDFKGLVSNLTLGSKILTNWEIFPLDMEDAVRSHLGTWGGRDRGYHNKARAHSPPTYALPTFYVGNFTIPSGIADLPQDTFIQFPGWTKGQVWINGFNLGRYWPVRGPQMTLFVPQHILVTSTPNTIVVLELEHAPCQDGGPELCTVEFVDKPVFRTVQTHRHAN
In words: Inhibition against beta-galactosidase in bovine liver; NI is No Inhibition at 1 mM.

Series [2] can be described thus: pKa value was determined for the compound by 1H NMR titration. It counts as physicochemical.

Each structure is given as a SMILES string.

Turning to `c1ccc(CNC2=NCCCC2)cc1`, affinity in series [1] was put at a Ki of 14000 µM.

Take `OCC1CCCC(NCc2ccccc2)=N1` (configuration not stated): in series [1], the inhibition constant (Ki) turned out to be 1400 µM.

For the compound `OC[C@@H]1N=C(NCc2ccccc2)[C@@H](O)[C@@H](O)[C@@H]1O`, the inhibition constant (Ki) entry at Beta-galactosidase is “No inhibition”; in series [1], 0.55 µM. This compound also returned a pKa in series [2] of 10. On to `CO[C@H]1O[C@@H](CNC2=N[C@@H](CO)[C@@H](O)[C@H](O)[C@@H]2O)[C@@H](O)[C@H](O)[C@H]1O`, for which the inhibition constant Ki entry was “No inhibition” on Beta-galactosidase and 2.6 µM in series [1].

Values taken from ChEMBL document CHEMBL1128073, “Inhibition of glycosidases by substituted amidines” (Bioorg Med Chem Lett, 1995).
